Source: patent publication US12162858B2, “Quinoline derivatives as inhibitors of AXL/MER RTK and CSF1R” (QURIENT CO., LTD., priority 2018, dated 2024)

What follows are compounds tested against T1, Axl (Homo sapiens, UniProt P30530) (assay: LanthaScreen Eu kinase binding assay for Axl). Conditions: comparison of compounds of present invention (**) vs compounds of WO2016/166250 (*); read-out: Binding activity Axl (Kd).
T1 sequence (P30530 26-894): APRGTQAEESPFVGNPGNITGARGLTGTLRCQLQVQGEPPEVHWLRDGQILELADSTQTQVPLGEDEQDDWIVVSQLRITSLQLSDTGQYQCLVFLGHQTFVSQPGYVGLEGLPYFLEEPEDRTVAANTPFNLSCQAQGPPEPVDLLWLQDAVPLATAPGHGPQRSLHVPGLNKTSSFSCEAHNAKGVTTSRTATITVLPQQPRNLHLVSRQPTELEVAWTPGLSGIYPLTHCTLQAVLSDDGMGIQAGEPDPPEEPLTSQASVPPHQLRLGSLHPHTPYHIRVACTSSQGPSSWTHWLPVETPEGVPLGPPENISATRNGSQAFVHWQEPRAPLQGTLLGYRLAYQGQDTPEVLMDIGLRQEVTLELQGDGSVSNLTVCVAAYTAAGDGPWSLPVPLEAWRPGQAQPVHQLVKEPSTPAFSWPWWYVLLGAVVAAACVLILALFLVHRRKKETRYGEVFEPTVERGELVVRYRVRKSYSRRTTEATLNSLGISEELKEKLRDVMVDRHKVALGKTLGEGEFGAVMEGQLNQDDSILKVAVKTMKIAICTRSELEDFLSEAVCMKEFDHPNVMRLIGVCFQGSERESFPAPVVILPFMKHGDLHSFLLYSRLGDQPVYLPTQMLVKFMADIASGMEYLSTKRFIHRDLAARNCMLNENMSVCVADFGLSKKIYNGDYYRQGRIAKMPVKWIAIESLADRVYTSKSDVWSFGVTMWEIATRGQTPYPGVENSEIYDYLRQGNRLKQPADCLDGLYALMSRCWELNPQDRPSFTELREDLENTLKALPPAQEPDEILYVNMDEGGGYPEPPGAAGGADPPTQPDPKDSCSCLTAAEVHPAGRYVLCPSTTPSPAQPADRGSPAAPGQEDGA
Method: LanthaScreen® Eu Kinase Binding assays were conducted at Life Technologies using the manufacturer's specifications for each kinase indicated.
Briefly, the principle behind this assay is based upon the binding and displacement of an Alexa Fluor 647-labeled tracer to the kinase of interest. Binding of the tracer to the kinase is detected using an EU-labeled anti-tag antibody. Simultaneous binding of both the tracer and antibody to the kinase gives rise to a FRET-signal. Binding of an inhibitor to the kinase competes for binding with the tracer, resulting in a loss of FRET-signal.
A given compound was diluted in DMSO to make a stock compound solution. The stock compound solution was serially diluted over eight steps in DMSO. Each diluted compound solution in DMSO was diluted in kinase buffer. Afterwards four kinds of working solution were prepared. First, Tracer-Working solution consists of Tracer 236 and Kinase Buffer. Second, Axl, Mer, Tyro3 or Met/anti-GST-AB-Working solution contained one of the kinases Axl, and Mer or anti-GST-AB (=anti glutathione-S-transferase antibody) in Kinase Buffer. Third, anti-GST-AB-Working solution was made with anti-GST-AB and Kinase Buffer. Last, in the DMSO-Working solution DMSO was added to Kinase Buffer to a final concentration to 3%. Each of the four kinds of working solutions were separately added to the assay plate and then incubated for 1 h at room temperature. After incubation, the assay plate was measured with respect to the FRET-Signal with the EnVision (Perkin Elmer) using the program LanthaHTRF-Assay. Data evaluation was done in the Quattro Workflow software. Kd (the equilibrium dissociation constant) values were calculated relative to vehicle (DMSO) control wells.

Kd [nM]	SMILES
1.4	COc1cc2nccc(Oc3ccc(NC(=O)c4nn(CC5COC5)cc4OCC(F)(F)F)nc3)c2cc1OC [Compound 92]

Same assay, conditions: read-out: Axl kinase binding activity (Kd)

SMILES	Kd [nM]
CNCCOc1cn(C2CC2)nc1C(=O)Nc1ccc(Oc2ccnc3cc(OC)c(OC)cc23)nn1 [Compound 160]	≥ 500
CCCn1cc(OCCN(C)C)c(C(=O)Nc2ccc(Oc3ccnc4cc(OC)c(OC)cc34)c(F)c2)n1 [Compound 165]	100 to 500
CCCn1cc(OCC2CNC2)c(C(=O)Nc2ccc(Oc3ccnc4cc(OC)c(OC)cc34)cn2)n1 [Compound 159]	≥ 500
COc1cc2nccc(Oc3ccc(NC(=O)c4nn(CCN)cc4OCC(F)(F)F)nn3)c2cc1OC [Compound 125]	≥ 500
COc1cc2nccc(Oc3ccc(NC(=O)c4nn(C5CCNC5)cc4OCC(F)(F)F)nn3)c2cc1OC (stereo not drawn) [Compound 122]	100 to 500
COc1cc2nccc(Oc3ccc(NC(=O)c4nn(CCO)cc4OCC(F)(F)F)cn3)c2cc1OC [Compound 129]	100 to 500
CNCCn1cc(OCC(F)(F)F)c(C(=O)Nc2ccc(Oc3ccnc4cc(OC)c(OC)cc34)c(C)c2)n1 [Compound 156]	100 to 500
COc1cc2nccc(Oc3ccc(NC(=O)c4nn(C5CCN(C)C5)cc4OCC(F)(F)F)cn3)c2cc1OC (stereo not drawn) [Compound 133]	100 to 500
COc1cc2nccc(Oc3ccc(NC(=O)c4nn(C5CC5)cc4OCC(F)F)nc3)c2cc1OC [Compound 109]	< 100
COc1cc2nccc(Oc3ccc(NC(=O)c4nn(CCOC5CC5)cc4OCC(F)(F)F)cn3)c2cc1OC [Compound 130]	< 100
CCCn1cc(OCC2COC2)c(C(=O)Nc2ccc(Oc3ccnc4cc(OC)c(OC)cc34)cn2)n1 [Compound 106]	< 100
COc1cc2nccc(Oc3ccc(NC(=O)c4nn(CCOC5CC5)cc4OCC(F)(F)F)cc3F)c2cc1OC [Compound 116]	< 100
CNCCn1cc(OCC(F)(F)F)c(C(=O)Nc2ccc(Oc3ccnc4cc(OC)c(OC)cc34)cc2F)n1 [Compound 154]	< 100
CNCCn1cc(OCC(F)(F)F)c(C(=O)Nc2ccc(Oc3ccnc4cc(OC)c(OC)cc34)cn2)n1 [Compound 11]	< 100
CNCCOc1cn(C2CC2)nc1C(=O)Nc1ccc(Oc2ccnc3cc(OC)c(OC)cc23)cn1 [Compound 141]	≥ 500
CCn1cc(OC(C)C)c(C(=O)Nc2ccc(Oc3ccnc4cc(OC)c(OC)cc34)cn2)n1 [Compound 6]	< 100

SMILES	Kd [nM]
CCCn1cc(OCC2CCOCC2)c(C(=O)Nc2ccc(Oc3ccnc4cc(OC)c(OC)cc34)cn2)n1 [Compound 164]	< 100
COc1cc2nccc(Oc3ccc(NC(=O)c4nn(CC5COC5)cc4OCC(F)(F)F)cc3F)c2cc1OC [Compound 97]	< 100
COc1cc2nccc(Oc3ccc(NC(=O)c4nn(CCOC5CC5)cc4OCC(F)(F)F)c(F)c3)c2cc1OC [Compound 115]	< 100
COc1cc2nccc(Oc3ccc(NC(=O)c4nn(C5CC5)cc4OCCF)nn3)c2cc1OC [Compound 113]	< 100
COc1cc2nccc(Oc3ccc(NC(=O)c4nn(CC5COC5)cc4OCC(F)(F)F)cc3C)c2cc1OC [Compound 99]	< 100
COCCn1cc(OCC(F)(F)F)c(C(=O)Nc2ccc(Oc3ccnc4cc(OC)c(OC)cc34)nc2)n1 [Compound 104]	< 100
CNCCn1cc(OCC(F)(F)F)c(C(=O)Nc2ccc(Oc3ccnc4cc(OC)c(OC)cc34)nn2)n1 [Compound 127]	≥ 500
COCCn1cc(OCC(F)(F)F)c(C(=O)Nc2ccc(Oc3ccnc4cc(OC)c(OC)cc34)nn2)n1 [Compound 126]	< 100
COc1cc2nccc(Oc3ccc(NC(=O)c4nn(CC5COC5)cc4OCC(F)(F)F)cn3)c2cc1OC [Compound 134]	< 100
COc1cc2nccc(Oc3ccc(NC(=O)c4nn(CC(C)O)cc4OCC(F)(F)F)cn3)c2cc1OC (stereo not drawn) [Compound 136]	< 100
COc1cc2nccc(Oc3ccc(NC(=O)c4nn(C5CC5)cc4OCC(F)(F)F)nn3)c2cc1OC [Compound 112]	< 100
CCn1cc(OCC2CCC2)c(C(=O)Nc2ccc(Oc3ccnc4cc(OC)c(OC)cc34)cn2)n1 [Compound 8]	< 100
COc1cc2nccc(Oc3ccc(NC(=O)c4nn(C5CCOC5)cc4OCC(F)(F)F)cn3)c2cc1OC (stereo not drawn) [Compound 138]	< 100
COc1cc2nccc(Oc3ccc(NC(=O)c4nn(CCN(C)C)cc4OCC(F)(F)F)nc3)c2cc1OC [Compound 9]	< 100
CCCn1cc(OCC(F)(F)F)c(C(=O)Nc2ccc(Oc3ccnc4cc(OC)c(OC)cc34)c(C(F)(F)F)c2)n1 [Compound 114]	< 100

Continued, values first:

Kd [nM]	SMILES
< 100	COc1cc2nccc(Oc3ccc(NC(=O)c4nn(C5CC5)cc4OCC4CCC4)nc3)c2cc1OC [Compound 111]
< 100	COc1cc2nccc(Oc3ccc(NC(=O)c4nn(C5CCN(C)C5)cc4OCC(F)(F)F)cc3F)c2cc1OC (stereo not drawn) [Compound 96]
< 100	COc1cc2nccc(Oc3ccc(NC(=O)c4nn(C5CC5)cc4NCC(F)(F)F)nn3)c2cc1OC [Compound 148]
< 100	COc1cc2nccc(Oc3ccc(NC(=O)c4nn(CC(C)O)cc4OCCF)nc3)c2cc1OC (stereo not drawn) [Compound 152]
< 100	COc1cc2nccc(Oc3ccc(NC(=O)c4nn(CC(C)C)cc4OCC(F)(F)F)nn3)c2cc1OC [Compound 124]
< 100	COc1cc2nccc(Oc3ccc(NC(=O)c4nn(C5CCN(C)C5)cc4OCC(F)(F)F)cc3)c2cc1OC (stereo not drawn) [Compound 100]
< 100	COc1cc2nccc(Oc3ccc(NC(=O)c4nn(CC5COC5)cc4OCC(F)(F)F)nc3)c2cc1OC [Compound 92]
< 100	COc1cc2nccc(Oc3ccc(NC(=O)c4nn(C5CC5)cc4OCC4COC4)nn3)c2cc1OC [Compound 161]
< 100	COc1cc2nccc(Oc3ccc(NC(=O)c4nn(CC(C)O)cc4OC(C)C)nc3)c2cc1OC (stereo not drawn) [Compound 151]
< 100	COCCOc1cn(C2CC2)nc1C(=O)Nc1ccc(Oc2ccnc3cc(OC)c(OC)cc23)cn1 [Compound 107]
< 100	COc1cc2nccc(Oc3ccc(NC(=O)c4nn(C5CC5)cc4OCC4CCC4)nn3)c2cc1OC [Compound 149]
< 100	COc1cc2nccc(Oc3ccc(NC(=O)c4nn(C5CCCC5)cc4OCC(F)(F)F)cn3)c2cc1OC [Compound 131]
< 100	COc1cc2nccc(Oc3ccc(NC(=O)c4nn(C5CC5)cc4OC(C)C)nc3)c2cc1OC [Compound 108]
< 100	CCCn1cc(OCCOC)c(C(=O)Nc2ccc(Oc3ccnc4cc(OC)c(OC)cc34)cn2)n1 [Compound 105]
< 100	CCCn1cc(NCCC(F)(F)F)c(C(=O)Nc2ccc(Oc3ccnc4cc(OC)c(OC)cc34)cn2)n1 [Compound 158]
< 100	COc1cc2nccc(Oc3ccc(NC(=O)c4nn(C5CC5)cc4OCC(F)F)nn3)c2cc1OC [Compound 162]
< 100	CNCCn1cc(OCC(F)(F)F)c(C(=O)Nc2ccc(Oc3ccnc4cc(OC)c(OC)cc34)c(F)c2)n1 [Compound 155]
< 100	CCCn1cc(OCC(F)(F)F)c(C(=O)Nc2ccc(Oc3ccnc4cc(OC)c(OC)cc34)nc2)n1 [Compound 139]
< 100	COc1cc2nccc(Oc3ccc(NC(=O)c4nn(CC5COC5)cc4OCC(F)(F)F)nn3)c2cc1OC [Compound 123]
< 100	COc1cc2nccc(Oc3ccc(NC(=O)c4nn(C5CC5)cc4NCCC(F)(F)F)nc3)c2cc1OC [Compound 142]
< 100	COc1cc2nccc(Oc3ccc(NC(=O)c4nn(CCOC5CC5)cc4OCC(F)(F)F)cc3)c2cc1OC [Compound 118]
< 100	COc1cc2nccc(Oc3ccc(NC(=O)c4nn(C5CC5)cc4OCCF)nc3)c2cc1OC [Compound 110]
< 100	COc1cc2nccc(Oc3ccc(NC(=O)c4nn(CCOC5CC5)cc4OCC(F)(F)F)cc3C)c2cc1OC [Compound 117]
< 100	COc1cc2nccc(Oc3ccc(NC(=O)c4nn(CC5COC5)cc4OCC(F)(F)F)cc3)c2cc1OC [Compound 101]
< 100	COc1cc2nccc(Oc3ccc(NC(=O)c4nn(C)cc4OCC(F)(F)F)nn3)c2cc1OC [Compound 102]
